Test results from patent EP0774460A1, “BENZOIC ACID COMPOUND AND USE THEREOF AS MEDICINE” (YOSHITOMI PHARMACEUTICAL INDUSTRIES, LTD., priority 1994, dated 1995).

Tests used:
5-HT4 receptor = target: T1, 5-HT4 receptor (Cavia porcellus, UniProt O70528); test: 5-HT4 receptor binding test; parameters: species or system guinea pig; details: [3H]GR113808 0.1 nM, crude synapse membrane from guinea pig striatum, 37°C; read-out: Affinity for receptor (Ki value, nM) 5-HT4
T1 construct: crude synapse membrane sample was prepared from guinea pig striatum; from tissue; host or cells: guinea pig striatum, crude synaptic membranes
T1 sequence (O70528 whole entry): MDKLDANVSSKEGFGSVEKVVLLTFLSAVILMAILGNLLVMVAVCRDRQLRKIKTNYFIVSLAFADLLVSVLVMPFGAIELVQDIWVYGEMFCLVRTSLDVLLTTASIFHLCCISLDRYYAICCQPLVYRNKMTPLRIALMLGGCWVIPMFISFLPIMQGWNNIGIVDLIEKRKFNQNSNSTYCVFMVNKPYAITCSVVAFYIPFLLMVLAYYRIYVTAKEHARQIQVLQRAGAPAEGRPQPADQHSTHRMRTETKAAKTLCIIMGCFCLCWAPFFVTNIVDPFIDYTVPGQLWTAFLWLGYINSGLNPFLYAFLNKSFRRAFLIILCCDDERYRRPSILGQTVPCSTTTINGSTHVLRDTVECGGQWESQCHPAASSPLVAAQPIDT
Description: Experimental Example 1 : 5-HT4 receptor binding test
According to the method of C.J. Grossman et al. (British Journal of Pharmacology, vol. 109, pp. 618-624), a specific 5-HT4 receptor binding test was run using, as a tracer ligand, 1-methyl-1H-indole-3-carboxylic acid · 1-(2-methylsulfonylaminoethyl)-piperidin-4-ylmethyl ester substituted by tritium (hereinafter to be referred to as [3H]GR113808). Specifically, crude synapse membrane sample was prepared from guinea pig striatum, suspended in 50 mM HEPES buffer (pH 7.4) and used for testing. The test compound having several different concentrations and [3H]GR113808 (final concentration 0.1 nM) were added to this suspension and allowed to react at 37°C. Thirty minutes later, the reaction mixture was filtered by suction with cell harvester. The filter was washed with 50 mM HEPES buffer, and the radioactivity on the filter was counted by liquid scintillation counter. The non-specific binding was determined in the presence of 1 µM GR113808. The concentration of the test compound necessary for 50% inhibition (IC50) and Ki value were determined from graph.

[1] = target: isolated guinea pig ascending colon (Cavia porcellus, UniProt O70528); test: contraction of isolated guinea pig ascending colon; assay type: cell-based; details: male Hartley guinea pig ascending colon, Tyrode solution 37°C, relative to methacholine (30 µM) contraction; read-out: Contraction of removed colon (EC50)
Chain of isolated guinea pig ascending colon (O70528 whole entry): as above
Description: Experimental Example 3 : contraction of isolated guinea pig ascending colon
About 3 cm long ascending colon segment was taken from male Hartley guinea pig and suspended in 10 ml of a Tyrode solution ventilated with a mixed gas of oxygen (95%) and CO2 (5%) at 37°C with the load of 2 g. The contraction was isotonically measured via isotonic transducer. After an equilibrium period of about 30 min, the test compound was administered non-cumulatively from lower concentrations, and dose-dependent contraction was measured. The test compound was administered at 15 minutes intervals. Then, contraction by the test compound in the presence of a 5-HT4 receptor antagonist, 4-amino-3-chloro-6-methoxybenzoic acid · 2-diethylaminoethyl ester (0.3 µM, hereinafter to be referred to as SDZ 205-557) was determined, and antagonistic effect on the reaction by SDZ 205-557 was confirmed.
The contraction by the test compound was evaluated based on the ratio of reaction relative to mean contraction induced by methacholine (30 µM) administered before and after each determination of dose-dependent contraction. The contraction was probit-converted using the maximum value of dose-response curve as 100, and expressed by EC50 as determined from linear regression and maximum reaction ratio.

5-HT3 receptor = target: T2, 5-HT3 receptor (Rattus norvegicus, UniProt P35563); test: 5-HT3 receptor binding test; details: [3H]Granisetron 1.0 nM, crude synapse membrane from rat cerebral cortex, 25°C; for IC50: cells marked * are IC50, read-out: Affinity for receptor 5-HT3 (∗ shows IC50); for Ki: cells without asterisk, read-out: Affinity for receptor (Ki value, nM) 5-HT3
T2 construct: crude synapse membrane sample was prepared from rat cerebral cortex; from tissue; host or cells: rat cerebral cortex, crude synaptic membranes
T2 sequence (P35563 24-483): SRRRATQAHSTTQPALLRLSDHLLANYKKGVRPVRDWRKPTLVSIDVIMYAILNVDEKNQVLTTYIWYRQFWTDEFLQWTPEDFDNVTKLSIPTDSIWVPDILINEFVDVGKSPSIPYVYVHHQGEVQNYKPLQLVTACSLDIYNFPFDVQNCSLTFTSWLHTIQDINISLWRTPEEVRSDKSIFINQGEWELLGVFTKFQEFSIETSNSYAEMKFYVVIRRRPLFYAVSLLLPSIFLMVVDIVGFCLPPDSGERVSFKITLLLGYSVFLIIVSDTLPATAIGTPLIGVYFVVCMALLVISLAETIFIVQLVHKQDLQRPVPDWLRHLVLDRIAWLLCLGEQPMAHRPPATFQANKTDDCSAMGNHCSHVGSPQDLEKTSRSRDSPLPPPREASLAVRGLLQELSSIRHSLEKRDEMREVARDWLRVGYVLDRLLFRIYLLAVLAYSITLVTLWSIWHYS
Description: Experimental Example 2 : 5-HT3 receptor binding test
According to the method of Peroutka et al (European Journal of Pharmacology, vol. 148, pp. 297-299), a specific 5-HT3 receptor binding test was run using, as a tracer ligand, endo-1-methyl-N-(9-methyl-9-azabicyclo[3.3.1]non-3-yl)-1H-indazole-3-carboxamide substituted by tritium (hereinafter to be referred to as [3H]Granisetron). Specifically, crude synapse membrane sample was prepared from rat cerebral cortex, suspended in 50 mM HEPES buffer (pH 7.4) and used for testing. The test compound having several different concentrations and [3H]Granisetron (final concentration 1.0 nM) were added to this suspension and allowed to react at 25°C. Thirty minutes later, the reaction mixture was filtered by suction with cell harvester. The filter was washed with 50 mM Tris buffer (pH 7.4), and the radioactivity on the filter was counted using liquid scintillation counter or β-plate. The non-specific binding was determined in the presence of 1 µM Tropisetron. The concentration of the test compound necessary for 50% inhibition (IC50) and Ki value were determined from graph.

Ki (5-HT4 receptor) [nM]	EC50 [1] [nM]	IC50 (5-HT3 receptor) [nM]	Ki (5-HT3 receptor) [nM]	Compound
7.4	6.7	> 1000		COc1cc(N)c(Cl)cc1C(=O)NCC1CCN(CCCCCN2C(=O)c3ccccc3C2=O)C1 (stereo not drawn) [Example 70, 4-amino-5-chloro-N-(1-(5-(2,3-dihydro-1,3-dioxo-1H-isoindol-2-yl)pentyl)pyrrolidin-3-ylmethyl)-2-methoxybenzamide]
0.44	1.2		260	COc1cc(N)c(Cl)cc1C(=O)NC[C@H]1CCN(CCCCNC(=O)c2cn(C)c3ccccc23)C1 [Example 85, N-(4-((3R)-3-(4-amino-5-chloro-2-methoxybenzoylaminomethyl)pyrrolidin-1-yl)butyl)-1-methyl-1H-indole-3-carboxamide]
1.2	1.4		350	COc1cc(N)c(Cl)cc1C(=O)NC[C@H]1CCN(CCCCCNC(=O)c2cn(C)c3ccccc23)C1 [Example 88, N-(5-((3R)-3-(4-amino-5-chloro-2-methoxybenzoylaminomethyl)pyrrolidin-1-yl)pentyl)-1-methyl-1H-indole-3-carboxamide]
0.43	0.9	> 1000		COc1cc(N)c(Cl)cc1C(=O)NCC1CCN(CCCCCNC(=O)c2cn(C)c3ccccc23)CC1 [Example 90, N-(5-(4-(4-amino-5-chloro-2-methoxybenzoylaminomethyl)piperidin-1-yl)pentyl)-1-methyl-1H-indole-3-carboxamide]
1.6	4	> 1000		COc1cc(N)c(Cl)cc1C(=O)NCC1CCN(CCCCNC(=O)c2cn(C)c3ccccc23)CC1 [Example 98, N-(4-(4-(4-amino-5-chloro-2-methoxybenzoylaminomethyl)piperidin-1-yl)butyl)-1-methyl-1H-indole-3-carboxamide]
